Here are results for one compound from patent publication US8796457B2, “Compound useful for the treatment of degenerative and inflammatory diseases” (Galapagos NV, priority 2009, dated 2014).

Data set [1] is described as follows: Microsomal stability, rat. Type of data set: in vitro ADME. Particulars: rat liver microsomes, 3 μM compound, 37° C. On the procedure:
(§1) A 10 mM stock solution of compound in DMSO was diluted 1000 fold in a 182 mM phosphate buffer pH7.4 in a 96 deep well plate (Greiner, Cat no. 780285) and pre-incubated at 37° C.
(§2) 40 μL of deionised water was added to a well of a polypropylene Matrix 2D barcode labelled storage tube (Thermo Scientific) and pre-incubated at 37° C.
(§3) A Glucose-6-phophate-dehydrogenase (G6PDH) working stock solution was prepared in 182 mM phosphate buffer pH7.4 and placed on ice before use. A co-factor containing MgCl2, glucose-6-phosphate and NADP+ was prepared in deionised water and placed on ice before use. […]
(§4) These plates were sealed with sealing mats (MA96RD-04S) of www.kinesis.co.uk and samples were measured at room temperature on LCMS (ZQ 1525 from Waters) under optimized conditions using Quanoptimize to determine the appropriate mass of the parent molecule.
(§5) The samples were analyzed on LCMS with a flow rate of 1 mL/min. […]
(§6) Peak area from the parent compound at time 0 was considered to be 100% remaining. The percentage remaining after 1 hour incubation was calculated from time 0 and was calculated as the percentage remaining. […]
(§7) The data on microsomal stability are expressed as a percentage of the total amount of compound remaining after 60 minutes.
Background: Liver microsomes are vesicles of endoplasmic reticulum, rich in cytochrome P450 enzymes.

Data set [2] has as its system JAK1-dependent pathway (IL-6 stimulated STAT1 phosphorylation, CD4+ cells) in human whole blood. In words: Whole blood assay, IL-6 stimulation, Phospho-STAT1 FACS. Type of data set: cell-based. On the procedure: A flow cytometry analysis was also performed to establish compound selectivity for JAK1 over JAK2, ex vivo using human whole blood.
Remaining diluted Lyse/Fix buffer was discarded.
The stock solution was stored aliquoted at −80° C.
Control-treated samples received DMSO instead of compound.
Human blood was collected in heparinized tubes.

The nature of data set [3]: Microsomal stability, human. Type of data set: in vitro ADME. As to conditions: human liver microsomes, 3 μM compound, 37° C. Here is the method: as §1, §2, §3, §4, §5, §6, §7

For the compound `CC1(C)CN(C(=O)c2ccc(-c3cccc4nc(NC(=O)C5CC5)nn34)cc2)C1` [Compound 1, Cyclopropanecarboxylic acid{5-[4-(3,3-dimethyl-azetidine-1-carbonyl)-phenyl]-[1,2,4]triazolo[1,5-a]pyridin-2-yl}-amide], in data set [1], the “Microsomal stability, percentage of compound remaining after 60 minutes, Rat” value is reported as 76-100%. In data set [2] (Homo sapiens, IL-6 stimulation, FACS, CD4+ cells, mean of 3 healthy volunteers, read-out: pIC50 in the inhibition of STAT1 phosphorylation (converted)), the IC50 is 245 nM. The “selectivity for JAK1 vs. JAK2 (STAT1 vs STAT5)” value in data set [2] (IL-6 pSTAT1 vs GM-CSF pSTAT5, human whole blood FACS) is reported as 17.6 fold. Moreover, the “Microsomal stability, percentage of compound remaining after 60 minutes, Human” value in data set [3] is reported as 76-100%.
